# In US11724992B2 (Novartis AG, priority 2017, dated 2023):
# pIC50: −log10 of the molar value.
# System: IL-1β production in PMA-differentiated THP-1 cells
# Assay: IL-1β production in PMA-differentiated THP-1 cells stimulated with gramicidin (hTHP-1 assay, 2% fetal bovine serum; Procedures 1-3)
# Format: cell-based, human
# Details: Homo sapiens, THP-1, hTHP-1 assay containing 2% fetal bovine serum; class symbols; read-out: hTHP-1 IC50 (Average IC50 of compounds in hTHP-1 assay)
# Outline: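 Readout is HTRF of IL-1β in cell-free supernatant after 2 h gramicidin (5 μM) challenge. Cells: THP-1 differentiated with PMA 20 ng/ml for 16-18 h, plated 50,000/well in 2% FBS RPMI, exposed to compound 1 h beforehand at final 100–0.0017 μM, DMSO 0.37%.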
row,SMILES,pIC50
1,"CNS(=O)(=NC(=O)Nc1c2c(cc3c1CCC3)CCC2)c1cnc(C(C)(C)O)s1 (centres unmarked) [Example 247, N′-((1,2,3,5,6,7-hexahydro-s-indacen-4-yl)carbamoyl)-2-(2-hydroxypropan-2-yl)-N-methylthiazole-5-sulfonimidamide]",4.52 to 5.30
2,"CN(C(=O)N=S(N)(=O)c1cnc(C(C)(C)O)s1)c1c2c(cc3c1CCC3)CCC2 (centres unmarked) [Example 248, N′-((1,2,3,5,6,7-hexahydro-s-indacen-4-yl)(methyl)carbamoyl)-2-(2-hydroxypropan-2-yl)thiazole-5-sulfonimidamide]",4.52 to 5.30
3,"CC(C)(O)c1cnc(S(N)(=O)=NC(=O)Nc2c3c(cc4c2OCC4)CCC3)s1 (centres unmarked) [Example 258, 5-(2-Hydroxypropan-2-yl)-N′-((3,5,6,7-tetrahydro-2H-indeno[5,6-b]furan-8-yl)carbamoyl)thiazole-2-sulfonimidamide]",6.70 to 7.40
4,"CC(C)(O)c1csc(S(N)(=O)=NC(=O)Nc2c3c(cc4c2OCC4)CCC3)n1 (centres unmarked) [Example 263, 4-(2-Hydroxypropan-2-yl)-N′-((3,5,6,7-tetrahydro-2H-indeno[5,6-b]furan-8-yl)carbamoyl)thiazole-2-sulfonimidamide]",7.40 to 8.10
5,"CN(C)C(C)(C)c1ccc(S(N)(=O)=NC(=O)Nc2c3c(cc4c2CCC4)CCC3)cc1 (centres unmarked) [Example 267, 4-(2-(Dimethylamino)propan-2-yl)-N′-(1,2,3,5,6,7-hexahydro-s-indacen-4-ylcarbamoyl)benzenesulfonimidamide]",6.70 to 7.40
6,"CC(C)(O)c1cc(F)c(S(N)(=O)=NC(=O)Nc2c3c(cc4c2CCC4)CCC3)s1 (centres unmarked) [Example 269, 3-Fluoro-N′-(1,2,3,5,6,7-hexahydro-s-indacen-4-ylcarbamoyl)-5-(2-hydroxypropan-2-yl)thiophene-2-sulfonimidamide]",7.40 to 8.10

# Other lines, results leading:
row,pIC50,SMILES
1,6.00 to 6.70,"COC(C)(C)c1ccc(S(N)(=O)=NC(=O)Nc2c3c(cc4c2CCC4)CCC3)cc1 (centres unmarked) [Example 274, N′-(1,2,3,5,6,7-hexahydro-s-indacen-4-ylcarbamoyl)-4-(2-methoxypropan-2-yl)benzenesulfonimidamide]"
2,6.00 to 6.70,"CN(C)Cc1ccc(S(N)(=O)=NC(=O)Nc2c3c(cc4c2CCC4)CCC3)nc1 (centres unmarked) [Example 278, 5-((Dimethylamino)methyl)-N′-(1,2,3,5,6,7-hexahydro-s-indacen-4-ylcarbamoyl)pyridine-2-sulfonimidamide]"
3,7.40 to 8.10,"CN(C)Cc1cc(F)c(S(N)(=O)=NC(=O)Nc2c3c(cc4c2CCC4)CCC3)s1 (centres unmarked) [Example 279, 5-((Dimethylamino)methyl)-3-fluoro-N′-(1,2,3,5,6,7-hexahydro-s-indacen-4-ylcarbamoyl)thiophene-2-sulfonimidamide]"
4,6.70 to 7.40,"CC(C)(O)c1ncc(S(N)(=O)=NC(=O)Nc2cc3c(c4c2CCC4)CCC3)s1 (centres unmarked) [Example 285, N′-((1,2,3,6,7,8-hexahydro-as-indacen-4-yl)carbamoyl)-2-(2-hydroxypropan-2-yl)thiazole-5-sulfonimidamide]"
5,6.70 to 7.40,"CC(C)(O)c1ncc(S(N)(=O)=NC(=O)Nc2c3c(cc4c2OCC4)CCC3)s1 (centres unmarked) [Example 289, 2-(2-Hydroxypropan-2-yl)-N′-((3,5,6,7-tetrahydro-2H-indeno[5,6-b]furan-8-yl)carbamoyl)thiazole-5-sulfonimidamide]"

# Same assay, conditions: hTHP-1 assay containing 2% fetal bovine serum; class symbols; read-out: hTHP-1 IC50 (Average IC50 of compounds in hTHP-1 assay)
row,SMILES,pIC50
1,"CC(c1ccc(S(N)(=O)=NC(=O)Nc2c3c(cc4c2CCC4)CCC3)cc1)N(C)C (centres unmarked) [Example 266, 4-(1-(Dimethylamino)ethyl)-N′-(1,2,3,5,6,7-hexahydro-s-indacen-4-ylcarbamoyl)benzenesulfonimidamide]",6.70 to 7.40
2,"CN1CCCC1c1ccc(S(=N)(=O)NC(=O)Nc2c3c(cc4c2CCC4)CCC3)cc1 (centres unmarked) [Example 283, N-((1,2,3,5,6,7-hexahydro-s-indacen-4-yl)carbamoyl)-4-(1-methylpyrrolidin-2-yl)benzenesulfonimidamide]",6.00 to 6.70
3,"CC1CCc2c1cc1c(c2NC(=O)N=S(N)(=O)c2cnc(C(C)(C)O)s2)CCC1 (centres unmarked) [Example 291, 2-(2-Hydroxypropan-2-yl)-N′-((1-methyl-1,2,3,5,6,7-hexahydro-s-indacen-4-yl)carbamoyl)thiazole-5-sulfonimidamide]",6.70 to 7.40
